From paper PMC10580953, “In vitro and intracellular activities of novel thiopeptide derivatives against macrolide-susceptible and macrolide-resistant Mycobacterium avium complex” (Microbiology Spectrum, 2023)
≈ marks a conversion by molar mass, not a printed value. Entries after “also recorded” stand apart in the source; their conditions may differ.

Columns and labels:
[1] = test system: M. avium ATCC 700898; conditions: for drug-drug interaction with CLR: synergism FICI ≤0.5, additive 0.5 < FICI ≤ 1, indifferent 1 < FICI ≤ 4, antagonistic FICI >4
Description: (§1) To evaluate the efficacy of the combination of agent A and agent B, a fractional inhibitory concentration (FIC) index was calculated as follows: FICI = (FIC of agent A) + (FIC of agent B) = (MIC of agent A in combination/MIC of agent A alone) + (MIC of agent B in combination/MIC of agent B alone). Synergism is defined as FICI ≤0.5, additive as 0.5 < FICI ≤ 1, indifferent as 1 < FICI ≤ 4, and antagonistic as FICI >4. The cultured bacteria were diluted to a 0.005 OD600 in 7H9 broth containing 5% OADC, and the antimicrobial agents were prepared by serial dilutions to a final concentration of 0.03–4 μg/mL. For the evaluation of inhibitory concentrations, the plates were incubated at 37°C for 5–7 d. Then, MIC values were assessed by REMA, and the FICI was calculated.

[2] = test system: M. intracellulare ATCC 13950; conditions: for drug-drug interaction with CLR: synergism FICI ≤0.5, additive 0.5 < FICI ≤ 1, indifferent 1 < FICI ≤ 4, antagonistic FICI >4
Description: as §1

[3] = test system: MAC in murine BMDMs; experiment: Intracellular anti-MAC activity in infected BMDMs, summary statements for MAC; type: cell-based, Mycobacterium avium complex; conditions: for intracellular activity in BMDMs infected with macrolide-resistant MAC clinical isolates: 10 µg/mL, 72 h (Fig. 5 and 6)
Description: (§2) BMDMs were obtained from 6-week-old female BALB/c mice. Bone marrow cells were differentiated into BMDMs using Dulbecco’s Modified Eagle Medium (Biowest) supplemented with 10% fetal bovine serum (Biowest) and 10% L929 cell supernatant as previously described ([58]).
(§3) BMDMs were seeded at 4 × 10^5 cells/mL in a 48-well plate and incubated overnight at 37°C. MAC strains were infected at a multiplicity of infection of 3 for 4 h and washed with DPBS twice. The cells were then cultured in the absence or presence of drugs in triplicate wells for 72 h. After incubation, the cells were lysed with 0.05% Triton X-100, and the cell lysates serially diluted with DPBS were spotted on 7H10 agar plates supplemented with OADC to count the number of viable bacteria. Colonies were enumerated after 7 d of incubation at 37°C, and the values are reported as the mean CFU ± standard deviation (SD) per mL. All experiments were repeated at least three times independently.

[4] = test system: macrolide-resistant M. avium; experiment: MIC by REMA, macrolide-resistant M. avium strains
Description: (§4) Reference strains were purchased from the American Type Culture Collection (ATCC; Manassas, VA, USA). All clinical MAC isolates, including macrolide-susceptible and macrolide-resistant strains, were kindly provided by Samsung Medical Center (SMC; Seoul, South Korea) and Asan Medical Center (AMC; Seoul, South Korea). All strains were cultivated in Middlebrook 7H9 liquid broth (Difco Laboratories, Detroit, MI) supplemented with 10% oleic acid-albumin-dextrose-catalase (OADC) or plated on Middlebrook 7H10 agar (Difco Laboratories) with 10% OADC enrichment at 37°C.
(§5) The MICs of all the reagents were determined using the REMA method based on guidelines by the Clinical and Laboratory Standards Institute ([57]). […] The cultures were diluted to an OD600 = 0.001 in 7H9 broth with 5% OADC. […] Two controls (broth only and bacteria only) were incubated to check for other contamination (broth only) and the growth of tested bacteria (bacteria only).
(§6) PCR amplification and sequencing for CLR were based on 23S rRNA. The primers and PCR conditions were as reported previously ([59]). PCR was carried out in a final volume of 20 µL and contained EzPCR Basic 5 × premix (ELPIS, Daejeon, South Korea), 13 µL of sterile dH2O, 1 µL of each forward and reverse primer, and 1 µL of template DNA. The PCR products were run on 1% agarose gels and purified using a NEXprep Gel/PCR Purification Mini Kit (Geneslabs, Gyeonggi, South Korea) for DNA cleanup. Purified PCR products were sequenced by Sanger sequencing in Bionics (Seoul, South Korea) with their gene-specific forward and reverse primers. Sequences obtained from Bionics were subjected to BLAST searches to compare nucleotide sequences with reference strains.

[5] = test system: M. avium; experiment: MIC by resazurin microtiter assay (REMA), M. avium strains
Description: (§7) Reference strains were purchased from the American Type Culture Collection (ATCC; Manassas, VA, USA). […] All strains were cultivated in Middlebrook 7H9 liquid broth (Difco Laboratories, Detroit, MI) supplemented with 10% oleic acid-albumin-dextrose-catalase (OADC) or plated on Middlebrook 7H10 agar (Difco Laboratories) with 10% OADC enrichment at 37°C.
as §5

[6] = test system: macrolide-resistant M. intracellulare; experiment: MIC by REMA, macrolide-resistant M. intracellulare strains; conditions: Mycobacterium intracellulare
Description: as §4, §5, §6

[7] = test system: M. intracellulare; experiment: MIC by resazurin microtiter assay (REMA), M. intracellulare strains
Description: as §7, §5

[8] = Aqueous kinetic solubility; type: physicochemical; conditions: for solubility at 2 h: aqueous buffer, kinetic from dmso stock, free form, deionized water pH 7.4, 1% DMSO; for Fold increase, Free form: solubility of free form compared to MP2; for solubility: thermodynamic from solid, HCl salt in deionized water
Description: The aqueous kinetic solubility was determined by preparing a 20 mM DMSO stock solution of test compounds and incubating an aliquot of this solution in deionized water at pH 7.4 to set a 1% final concentration of DMSO. In the case of HCl salt compounds, 1–2 mg of compound was weighed and dissolved in deionized water to yield an approximately 10 mg/mL solution. After initial mixing using brief vortexing and sonication, samples were equilibrated by shaking for 2 h at room temperature. Suspensions or solutions with visible particles were filtered through 0.22 µm PVDF membrane filters. The dissolved drug concentration was analyzed using UPLC-MS. To determine the solubility of the HCl salt, 1 mg of compound was weighed into a 2 mL glass tube, and a fixed volume of deionized water was added to yield an approximately 10 mg/mL solution. The solution was equilibrated by shaking for 24 h at room temperature. After equilibration, the vials were visually examined. If a clear solution was obtained, solubility was reported as >mg/mL.

[9] = test system: M. avium in murine BMDMs; experiment: Intracellular anti-MAC activity in infected BMDMs, M. avium; type: cell-based, Mycobacterium avium
Description: as §2, §3

[10] = test system: macrolide-resistant M. avium clinical isolates in BMDMs; experiment: Intracellular activity in BMDMs, macrolide-resistant M. avium clinical isolates; type: cell-based, Mycobacterium avium; conditions: five macrolide-resistant M. avium clinical isolates, 10 µg/mL, 72 h (Fig. 5)
Description: as §2, §3

[11] = Mycobacterium avium, M. avium (SMC#420), 23S rRNA A2058/A2059 C/A
[12] = Mycobacterium avium, M. avium (SMC#422), 23S rRNA A2058/A2059 A/G
[13] = Mycobacterium avium, M. avium (SMC#1213), 23S rRNA A2058/A2059 T/A
[14] = Mycobacterium avium, ATCC700898
[15] = Mycobacterium avium, M. avium (SMC#6)
[16] = Mycobacterium avium, M. avium (SMC#1637)
[17] = M. intracellulare (AMC#24), 23S rRNA A2058/A2059 G/A
[18] = M. intracellulare (SMC#104), 23S rRNA A2058/A2059 G/A
[19] = M. intracellulare (SMC#400), 23S rRNA A2058/A2059 C/A
[20] = M. intracellulare (SMC#414), 23S rRNA A2058/A2059 A/G
[21] = M. intracellulare (SMC#418), 23S rRNA A2058/A2059 G/A
[22] = Mycobacterium intracellulare, ATCC13950, M. intracellulare (ATCC 13950), reference strain
[23] = Mycobacterium intracellulare, M. intracellulare (SMC#8)
[24] = Mycobacterium intracellulare, M. intracellulare (SMC#12)
[25] = combination with CLR, synergism FICI ≤0.5, additive 0.5 < FICI ≤ 1
[26] = M. avium (SMC#1216), 23S rRNA A2058/A2059 C/A

Row | SMILES | drug-drug interaction with CLR [1] | drug-drug interaction with CLR [2] | intracellular activity in BMDMs infected with macrolide-resistant MAC clinical isolates [3] | MIC [4, 11] | MIC [4, 12] | MIC [4, 13] | MIC ([5]; M. avium (SMC#7)) | MIC ([5]; Mycobacterium avium) | MIC [5, 14] | MIC [5, 15] | MIC [5, 16] | MIC [6, 17] | MIC [6, 18] | MIC [6, 19] | MIC [6, 20] | MIC [6, 21] | MIC ([7]; M. intracellulare (SMC#9)) | MIC ([7]; M. intracellulare (SMC#831)) | MIC ([7]; M. intracellulare (SMC#2087)) | MIC ([7]; Mycobacterium intracellulare) | also measured
1 | COc1nc2ccc(Br)cc2cc1[C@@H](c1ccccc1)[C@@](O)(CCN(C)C)c1cccc2ccccc12 [bedaquiline, reference compound] | synergistic effects were not observed | synergistic effects were not observed | – | – | – | – | – | – | – | – | – | – | – | – | – | – | – | – | – | – | –
2 | CC[C@H]1OC(=O)[C@H](C)[C@@H](O[C@H]2C[C@@](C)(OC)[C@@H](O)[C@H](C)O2)[C@H](C)[C@@H](O[C@@H]2O[C@H](C)C[C@H](N(C)C)[C@H]2O)[C@](C)(OC)C[C@@H](C)C(=O)[C@H](C)[C@@H](O)[C@]1(C)O [CLR, clarithromycin, reference compound] | – | – | resistance | > 64 µg/mL | > 64 µg/mL | > 64 µg/mL | 0.5 µg/mL (≈ 0.668 µM) | 0.5 µg/mL (≈ 0.668 µM) | 0.5 µg/mL (≈ 0.668 µM) | 0.125 µg/mL (≈ 0.167 µM) | 0.125 µg/mL (≈ 0.167 µM) | > 64 µg/mL | > 64 µg/mL | > 64 µg/mL | > 64 µg/mL | > 64 µg/mL | 0.125 µg/mL (≈ 0.167 µM) | 0.125 µg/mL (≈ 0.167 µM) | 0.125 µg/mL (≈ 0.167 µM) | 0.125 µg/mL (≈ 0.167 µM) | MIC ([4]; Mycobacterium avium, M. avium (SMC#417), 23S rRNA A2058/A2059 C/A): > 64 µg/mL; MIC ([4]; Mycobacterium avium, M. avium (SMC#1216), 23S rRNA A2058/A2059 C/A): > 64 µg/mL; MIC ([7]; M. intracellulare (SMC#699)): 0.125 µg/mL (≈ 0.167 µM); MIC [7, 22]: 0.25 µg/mL (≈ 0.334 µM); MIC [7, 23]: 0.25 µg/mL (≈ 0.334 µM); MIC [7, 24]: 0.25 µg/mL (≈ 0.334 µM)
3 | C/C=C1\NC(=O)[C@H]([C@@H](C)O)NC(=O)c2csc(n2)-c2ccc(-c3nc(-c4nc(C(=O)NC5(C(=O)NCCCN6C(=O)CNC6=O)CC5)cs4)cs3)nc2-c2csc(n2)[C@H]([C@@H](C)O)NC(=O)c2csc(n2)[C@H](C(C)C)NC(=O)c2csc1n2 [AJ-039] | additive effect | additive effect | relatively little activity | 0.5 µg/mL (≈ 0.408 µM) | 4 µg/mL (≈ 3.26 µM) | 2 µg/mL (≈ 1.63 µM) | – | – | – | 0.125 µg/mL (≈ 0.102 µM) | 0.125 µg/mL (≈ 0.102 µM) | 0.125 µg/mL (≈ 0.102 µM) | 0.125 µg/mL (≈ 0.102 µM) | 0.125 µg/mL (≈ 0.102 µM) | 0.125 µg/mL (≈ 0.102 µM) | 0.125 µg/mL (≈ 0.102 µM) | 0.125 µg/mL (≈ 0.102 µM) | 0.125 µg/mL (≈ 0.102 µM) | 0.125 µg/mL (≈ 0.102 µM) | 0.125 µg/mL (≈ 0.102 µM) | solubility at 2 h [8]: 2.98 µg/mL (≈ 2.43 µM); Fold increase, HCl salt ([8]; solubility of HCl salt compared to MP2): ×360 fold; Fold increase, Free form [8]: ×43 fold; solubility [8]: 25.2 µg/mL; CFUs in BMDMs, drug alone ([9]; M. avium SMC#7 (Fig. 2C)): did not reduce CFUs; intracellular activity of combination with CLR compared to CLR alone ([9]; M. avium SMC#7, each drug 10 µg/mL, 72 h): not significant compared to that of CLR alone; FICI [1, 25]: 0.54; FICI [2, 25]: 0.56; MIC [4, 26]: 0.125 µg/mL (≈ 0.102 µM); MIC ([4]; Mycobacterium avium): 0.125 µg/mL (≈ 0.102 µM); MIC ([5]; Mycobacterium avium, ATCC700898, M. avium (ATCC 700898), reference strain): 0.125 µg/mL (≈ 0.102 µM); MIC ([5]; Mycobacterium avium, M. avium (CP000479.1), reference strain): 0.125 µg/mL (≈ 0.102 µM); MIC ([5]; Mycobacterium avium, M. avium (SMC#7)): 0.125 µg/mL (≈ 0.102 µM); MIC ([7]; M. intracellulare (SMC#8)): 0.125 µg/mL (≈ 0.102 µM); MIC ([7]; M. intracellulare (SMC#12)): 0.125 µg/mL (≈ 0.102 µM); MIC ([7]; M. intracellulare (SMC#699)): 0.125 µg/mL (≈ 0.102 µM); MIC ([7]; Mycobacterium intracellulare, ATCC13950): 0.125 µg/mL (≈ 0.102 µM)
4 | C/C=C1\NC(=O)[C@H]([C@@H](C)O)NC(=O)c2csc(n2)-c2ccc(-c3nc(-c4nc(C(=O)NC5(C(=O)NCCN6CCN(C[C@@H](O)CO)CC6)CC5)cs4)cs3)nc2-c2csc(n2)[C@H]([C@@H](C)O)NC(=O)c2csc(n2)[C@H](C(C)C)NC(=O)c2csc1n2 [AJ-206] | strongest synergistic effect; also recorded: Synergistic effects | relatively weak but synergistic effect; also recorded: Synergistic effects | significant decrease in CFUs | 0.5 µg/mL (≈ 0.393 µM) | 1 µg/mL (≈ 0.786 µM) | 1 µg/mL (≈ 0.786 µM) | 0.5 µg/mL (≈ 0.393 µM) | 0.5 µg/mL (≈ 0.393 µM) | 0.5 µg/mL (≈ 0.393 µM) | 0.125 µg/mL (≈ 0.0982 µM) | 0.125 µg/mL (≈ 0.0982 µM) | 0.125 µg/mL (≈ 0.0982 µM) | 0.125 µg/mL (≈ 0.0982 µM) | – | 0.125 µg/mL (≈ 0.0982 µM) | – | – | 0.125 µg/mL (≈ 0.0982 µM) | 0.125 µg/mL (≈ 0.0982 µM) | 0.125 µg/mL (≈ 0.0982 µM) | solubility at 2 h [8]: 102 µg/mL (≈ 80.2 µM); Fold increase, Free form [8]: ×1,457 fold; solubility [8]: > 10000 µg/mL; intracellular growth of MAC in BMDMs ([3]; MAC-infected BMDMs, 72 h (Fig. 2)): remarkably inhibited the intracellular growth of MAC to a similar degree as CLR; also recorded: significantly reduced the number of MAC CFUs inside macrophages; intracellular bacterial growth in BMDMs [10]: notably inhibited intracellular bacterial growth; MIC [4, 26]: 0.125 µg/mL (≈ 0.0982 µM); MIC ([4]; Mycobacterium avium): 0.125 µg/mL (≈ 0.0982 µM); MIC [7, 22]: 0.5 µg/mL (≈ 0.393 µM); MIC ([7]; Mycobacterium intracellulare, M. intracellulare (SMC#7)): 0.25 µg/mL (≈ 0.196 µM); MIC [7, 23]: 0.5 µg/mL (≈ 0.393 µM); MIC [7, 24]: 0.5 µg/mL (≈ 0.393 µM); MIC ([7]; Mycobacterium intracellulare, M. intracellulare (SMC#699)): 0.5 µg/mL (≈ 0.393 µM)
